Source: publication PMC3002932 (PLoS ONE, 2010)
Entries after “also recorded” stand apart in the source; their conditions may differ. Read-outs that look alike come from different tables or passages of the source.

How the values were obtained:
[1] = tested on: viral glycoproteins (GRFN-1 binding; gp120LAV chip); experiment: SPR competition of saccharides with GRFN-1 binding; parameters: species or system HIV-1
Source text: α-D-mannopyranose (Man), L-fucopyranose (Fuc), α-D-galactopyranose (Gal), sialic acid (N-acetyl-neuraminic acid, Neu5Ac), N-acetyl-glucosamine (GlcNAc) and Man3(GlcNAc)2, a core pentasaccharide found in most N-linked oligosaccharides. All of these saccharides were purchased from Sigma-Aldrich (St. Louis, MO).

HIV-1 (BaL) = type: cell-based; settings: TZM-bl assay; for EC50: HIV-1 BaL (R5), 24 hr, luciferase activity
Method: The ability of the analogs to inhibit HIV infection was determined with an assay that determines viral infectivity with an LTR-mediated luciferase reporter construct [37]. In brief, TZM-bl reporter cells are HeLa-derived JC53-BL cells that express high levels of CD4, CXCR4, and CCR5. They also contain reporter cassettes for luciferase and β-galactosidase, both driven by the HIV-1 long terminal repeat [38]). 24 hr after these reporter cells were exposed to R5 lab-adapted strains of HIV-1 (BaL) in the presence of peptides, protection was measured as % reduction in luciferase activity (relative light units) compared to cells infected with virus and peptide vehicle alone.

CXCR4 (HIV-1IIIB) = experiment: p24^gag antigen release assay using PBMCs, CXCR4 strain; type: cell-based; settings: PBMC based p24^gag antigen release assay
HIV-1 = settings: read-out: average EC50; anti-HIV inhibitory activity; ref [20], [21]; cited from earlier work
Source text: Preventing HIV-1 infection is the primary goal of pre- and post-exposure prophylaxis of HIV. Prophylactic modalities that block HIV-1 entry would be particularly valuable, because latent HIV-1 infections are typically refractory to therapeutic or immunological interventions [1]–[9]. […] Most anti-HIV lectins have been identified in and isolated from natural sources. They include cyanovirin-N [11], [12] and scytovirin [13] from cyanobac ...

CCR5 (HIV-1BAL) = experiment: p24^gag antigen release assay using PBMCs, CCR5 strain; type: cell-based; settings: PBMC based p24^gag antigen release assay

Which “competition with binding of GRFN-1 to viral glycoproteins (in words)” value (shortened to “competition with binding”) ([1]; pH = 7.4) does the source give for `CC(=O)N[C@@H]1[C@@H](O)[C@H](O)[C@@H](CO)O[C@H]1O` [GlcNAc, N-acetyl-glucosamine] here?
Its value is “interacted with all of these sugars, except fucose; also recorded: the most effective competitors”.

Which EC50 (HIV-1 (BaL)) does the source give for `CC[C@H](C)[C@@H]1NC(=O)CNC(=O)[C@H](CCCCN)NC(=O)CNC(=O)[C@@H]2CSSC[C@H](NC1=O)C(=O)N[C@@H](CCCNC(=N)N)C(=O)N[C@H]1CSSC[C@H](NC(=O)[C@H](CCCNC(=N)N)NC(=O)[C@@H]3CSSC[C@H](NC(=O)[C@H]([C@@H](C)CC)NC1=O)C(=O)NCC(=O)N[C@@H](CCCNC(=N)N)C(=O)NCC(=O)N[C@@H]([C@@H](C)CC)C(=O)N3)C(=O)N[C@@H]([C@@H](C)CC)C(=O)N2` [RC-101, reference compound] here?
The EC50 was 3400 nM.

With `O=C[C@H](O)[C@@H](O)[C@@H](O)[C@H](O)CO` [galactose, α-D-galactopyranose] as the compound, how does the “competition with binding” value ([1]; pH = 7.4) read?
Its value is “interacted with all of these sugars, except fucose”.

For `OC[C@H]1O[C@H](O)[C@@H](O)[C@@H](O)[C@@H]1O` [mannose, α-D-mannopyranose], which “competition with binding” value ([1]; pH = 7.4) is on record?
Its value is “interacted with all of these sugars, except fucose; also recorded: the most effective competitors”.

What about the “competition with binding” value ([1]; pH = 7.4, listed as D-Mannose) of the same compound?
Its value is “especially potent inhibitor that could almost completely abrogate binding of GRFN-1 to the viral glycoproteins”.

With `CC(=O)N[C@H]1[C@H]([C@H](O)[C@H](O)CO)OC(O)(C(=O)O)C[C@@H]1O` (stereo partly drawn) [sialic acid, N-acetyl-neuraminic acid] as the compound, how does the “competition with binding” value ([1]; pH = 7.4) read?
Its value is “interacted with all of these sugars, except fucose; also recorded: less profound”.

Which “antiviral activity (in words)” value (HIV-1 (BaL); dose response, Figure 4) does the source give for “Cha-SC-Chg-R-Chg-RSGSY-Cha-DR-Ch\g-R-Chg-(D)Cys-CONH2 (disulfide) [GRFN-2, otherwise identical peptide with an Asn to Arg substitution]” here?
The value was “considerably less active than GRFN-1”.

For Man3GlcNAc2, which “competition with binding” value ([1]; pH = 7.4) is on record?
Its value is “interacted with all of these sugars, except fucose”.

Which results are given for griffithsin?
antiviral activity (in words) (CXCR4 (HIV-1IIIB)): maintained their antiviral activity; EC50 (HIV-1): 0.04 nM; EC50 (HIV-1 (BaL); griffithsin): 0.0196 ± 0.0019 nM; antiviral activity (in words) (CCR5 (HIV-1BAL)): maintained their antiviral activity
